Consider 2 compounds from paper PMC3826612 (Talanta, 2013).

The target of this test is acetylcholinesterase from Electrophorus electricus (eelAChE) immobilized on magnetic beads (Electrophorus electricus, UniProt O42275). The test can be described thus: Ligand fishing assay using eelAChE-MB. Type of test: binding. As to conditions: 100 nM reference compounds, individually and as a mixture.
Sequence of acetylcholinesterase from Electrophorus electricus (eelAChE) immobilized on magnetic beads (O42275 24-633): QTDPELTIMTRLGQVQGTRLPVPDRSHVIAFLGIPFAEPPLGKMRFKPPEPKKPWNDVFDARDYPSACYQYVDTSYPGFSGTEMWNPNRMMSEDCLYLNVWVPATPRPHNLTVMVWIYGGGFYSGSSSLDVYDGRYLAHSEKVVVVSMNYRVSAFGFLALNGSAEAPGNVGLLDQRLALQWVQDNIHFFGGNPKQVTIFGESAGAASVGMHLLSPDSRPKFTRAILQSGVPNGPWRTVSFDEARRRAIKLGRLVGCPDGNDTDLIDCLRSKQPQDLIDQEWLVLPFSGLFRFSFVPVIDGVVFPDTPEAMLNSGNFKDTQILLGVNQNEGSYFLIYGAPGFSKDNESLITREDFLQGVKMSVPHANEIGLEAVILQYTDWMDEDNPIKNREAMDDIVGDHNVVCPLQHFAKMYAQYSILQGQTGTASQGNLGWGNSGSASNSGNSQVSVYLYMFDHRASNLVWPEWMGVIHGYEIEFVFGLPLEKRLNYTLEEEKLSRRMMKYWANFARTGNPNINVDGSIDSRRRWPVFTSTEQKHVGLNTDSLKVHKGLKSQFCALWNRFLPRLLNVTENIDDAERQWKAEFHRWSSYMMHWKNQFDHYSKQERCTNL

On to `CNC1(c2ccccc2Cl)CCCCC1=O` (centres unmarked) [ketamine], for which the “Presence in supernatants S-1 (unbound) and S-2 (eluted)” value was “only present in S-1”.

Consider `CC(CCc1ccccc1)NCC(O)c1ccc(O)c(C(N)=O)c1` (centres unmarked) [labetalol], for which the “Presence in supernatants S-1 (unbound) and S-2 (eluted)” value is on record as “only present in S-1”.
